Earlier results as cited in publication PMC8522729 (Antimicrobial Agents and Chemotherapy, 2021).

System: M. tuberculosis
Conditions: cited from earlier work

O=C1CCc2c(OC[C@]3(O)CCN(c4c(F)cc(Cl)cc4F)C[C@H]3O)ccc(F)c2N1 [OPC-167832]
frequency of resistance: < 1.9 × 10^−7
